According to the supplement of paper PMC11451515:

Experiments:
Settings in all cases: 48 h
P12-Ichikawa [1] = test: cell viability relative to DMSO control; higher = less cytotoxic
Outline: (§1)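 NOMO1 or SEM (500 cells/well) or P12-Ichikawa (1000 cells/well) leukemia cells were adapted for at least four passages in each medium. They were seeded in 1536-well plates (5 μl) and pin-dosed with library compounds in DMSO over an 11-point threefold series, 47 μM to 0.79 nM. CellTiter-Glo One luminescence was read after 48 h at 37°C. Viability is the per-plate percentage relative to DMSO wells, with cell-free wells as background.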

SEM cells [2] = test: as above
Outline: as §1

NOMO1 [3] = test: as above
Outline: as §1

P12-Ichikawa [4] = test: AUC of viability dose-response curve (% viability x log10 dose units); higher = less sensitive
Outline: (§2)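 In 1536-well plates, leukemia cells adapted to each medium (500 or 1000 cells/well) were exposed for 48 h at 37°C to library compounds in DMSO across 11 threefold doses, 47 μM down to 0.79 nM. Viability was read by CellTiter-Glo One luminescence and normalised per plate to DMSO and cell-free wells. A four-parameter log-logistic fit over log10 doses was integrated by trapezoidal rule. This yielded the area under the curve, with over-full-viability curves scaled and quality-control failures dropped.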

SEM cells [5] = test: as above
Outline: as §2

NOMO1 [6] = test: as above
Outline: as §2

Cc1cccc(N(C)C(=S)Oc2ccc3ccccc3c2)c1
cell viability [%]
Settings | NOMO1 [3] | P12-Ichikawa [1] | SEM cells [2]
HPLM + 10% dialyzed FBS, 0.000781 µM | 110 | 98.1 | 79.4
HPLM + 10% dialyzed FBS, 0.00234 µM | 120 | 114 | 91.8
HPLM + 10% dialyzed FBS, 0.00702 µM | 116 | 109 | 83.8
HPLM + 10% dialyzed FBS, 0.0211 µM | 124 | 109 | 98.8
HPLM + 10% dialyzed FBS, 0.0632 µM | 117 | 118 | 90.7
HPLM + 10% dialyzed FBS, 0.19 µM | 112 | 94.2 | 104
HPLM + 10% dialyzed FBS, 0.569 µM | 123 | 107 | 96.8
HPLM + 10% dialyzed FBS, 1.71 µM | 121 | 109 | 84.7
HPLM + 10% dialyzed FBS, 5.12 µM | 100 | 111 | 106
HPLM + 10% dialyzed FBS, 15.4 µM | 92 | 111 | 96.5
HPLM + 10% dialyzed FBS, 46.1 µM | 110 | 109 | 87.2
RPMI 5 mM glucose + 10% FBS, 0.000781 µM | 99.9 | 109 | 79.7
RPMI 5 mM glucose + 10% FBS, 0.00234 µM | 94.2 | 107 | 102
RPMI 5 mM glucose + 10% FBS, 0.00702 µM | 106 | 111 | 96.1
RPMI 5 mM glucose + 10% FBS, 0.0211 µM | 107 | 112 | 90.8
RPMI 5 mM glucose + 10% FBS, 0.0632 µM | 108 | 113 | 108
RPMI 5 mM glucose + 10% FBS, 0.19 µM | 98.8 | 116 | 86.7
RPMI 5 mM glucose + 10% FBS, 0.569 µM | 97.2 | 116 | 110
RPMI 5 mM glucose + 10% FBS, 1.71 µM | 97.3 | 112 | 109
RPMI 5 mM glucose + 10% FBS, 5.12 µM | 94.5 | 107 | 107
RPMI 5 mM glucose + 10% FBS, 15.4 µM | 103 | 99.6 | 99.4
RPMI 5 mM glucose + 10% FBS, 46.1 µM | 99.6 | 92.4 | 85
RPMI 5 mM glucose + 10% dialyzed FBS, 0.000781 µM | 98.1 | 95.1 | 95.6
RPMI 5 mM glucose + 10% dialyzed FBS, 0.00234 µM | 105 | 101 | 114
RPMI 5 mM glucose + 10% dialyzed FBS, 0.00702 µM | 99.8 | 104 | 102
RPMI 5 mM glucose + 10% dialyzed FBS, 0.0211 µM | 112 | 108 | 108
RPMI 5 mM glucose + 10% dialyzed FBS, 0.0632 µM | 99.8 | 104 | 108
RPMI 5 mM glucose + 10% dialyzed FBS, 0.19 µM | 95.2 | 109 | 96.7
RPMI 5 mM glucose + 10% dialyzed FBS, 0.569 µM | 107 | 106 | 129
RPMI 5 mM glucose + 10% dialyzed FBS, 1.71 µM | 110 | 109 | 117
RPMI 5 mM glucose + 10% dialyzed FBS, 5.12 µM | 104 | 103 | 115
RPMI 5 mM glucose + 10% dialyzed FBS, 15.4 µM | 101 | 104 | 101
RPMI 5 mM glucose + 10% dialyzed FBS, 46.1 µM | 106 | 80.4 | 89

AUC of viability dose-response curve
Settings | NOMO1 [6] | P12-Ichikawa [4] | SEM cells [5]
HPLM + 10% dialyzed FBS | 460 | 469 | 445
RPMI 5 mM glucose + 10% FBS | 470 | 466 | 470
RPMI 5 mM glucose + 10% dialyzed FBS | 469 | 471 | 476

O=[S+]([O-])(CCSSCC[S+](=O)([O-])[O][Na])[O][Na]
cell viability [%]
Settings | NOMO1 [3] | P12-Ichikawa [1] | SEM cells [2]
HPLM + 10% dialyzed FBS, 0.000781 µM | 110 | 105 | 78.9
HPLM + 10% dialyzed FBS, 0.00234 µM | 104 | 110 | 95.5
HPLM + 10% dialyzed FBS, 0.00702 µM | 132 | 114 | 101
HPLM + 10% dialyzed FBS, 0.0211 µM | 124 | 124 | 65.2
HPLM + 10% dialyzed FBS, 0.0632 µM | 120 | 121 | 120
HPLM + 10% dialyzed FBS, 0.19 µM | 112 | 124 | 104
HPLM + 10% dialyzed FBS, 0.569 µM | 133 | 129 | 102
HPLM + 10% dialyzed FBS, 1.71 µM | 125 | 120 | 103
HPLM + 10% dialyzed FBS, 5.12 µM | 135 | 126 | 107
HPLM + 10% dialyzed FBS, 15.4 µM | 129 | 123 | 108
HPLM + 10% dialyzed FBS, 46.1 µM | 141 | 129 | 118
RPMI 5 mM glucose + 10% FBS, 0.000781 µM | 107 | 97.4 | 117
RPMI 5 mM glucose + 10% FBS, 0.00234 µM | 115 | 111 | 97.5
RPMI 5 mM glucose + 10% FBS, 0.00702 µM | 125 | 107 | 116
RPMI 5 mM glucose + 10% FBS, 0.0211 µM | 119 | 111 | 73.7
RPMI 5 mM glucose + 10% FBS, 0.0632 µM | 127 | 121 | 115
RPMI 5 mM glucose + 10% FBS, 0.19 µM | 123 | 116 | 112
RPMI 5 mM glucose + 10% FBS, 0.569 µM | 125 | 133 | 119
RPMI 5 mM glucose + 10% FBS, 1.71 µM | 129 | 132 | 103
RPMI 5 mM glucose + 10% FBS, 5.12 µM | 147 | 124 | 124
RPMI 5 mM glucose + 10% FBS, 15.4 µM | 130 | 119 | 112
RPMI 5 mM glucose + 10% FBS, 46.1 µM | 142 | 118 | 111
RPMI 5 mM glucose + 10% dialyzed FBS, 0.000781 µM | 107 | 108 | 103
RPMI 5 mM glucose + 10% dialyzed FBS, 0.00234 µM | 112 | 133 | 99.9
RPMI 5 mM glucose + 10% dialyzed FBS, 0.00702 µM | 126 | 119 | 113
RPMI 5 mM glucose + 10% dialyzed FBS, 0.0211 µM | 130 | 127 | 72.8
RPMI 5 mM glucose + 10% dialyzed FBS, 0.0632 µM | 121 | 134 | 134
RPMI 5 mM glucose + 10% dialyzed FBS, 0.19 µM | 122 | 127 | 120
RPMI 5 mM glucose + 10% dialyzed FBS, 0.569 µM | 125 | 134 | 126
RPMI 5 mM glucose + 10% dialyzed FBS, 1.71 µM | 139 | 126 | 120
RPMI 5 mM glucose + 10% dialyzed FBS, 5.12 µM | 134 | 130 | 121
RPMI 5 mM glucose + 10% dialyzed FBS, 15.4 µM | 144 | 139 | 126
RPMI 5 mM glucose + 10% dialyzed FBS, 46.1 µM | 127 | 133 | 139

AUC of viability dose-response curve
Settings | NOMO1 [6] | P12-Ichikawa [4] | SEM cells [5]
HPLM + 10% dialyzed FBS | 432 | 461 | 423
RPMI 5 mM glucose + 10% FBS | 428 | 451 | 457
RPMI 5 mM glucose + 10% dialyzed FBS | 450 | 472 | 438
